From patent US7125990B2, “Imidazolyl derivatives as corticotropin releasing factor inhibitors” (Bristol-Myers Squibb COmpany, priority 2001, dated 2006)

Target: T1, CRF1 receptors (Homo sapiens, UniProt P34998)
T1 construct: endogenous in cells; host or cells: IMR-32 cells, transformed with 2.5 µM 5'-bromo-2'-deoxyuridine for 10 days; membrane preparation
T1 sequence (P34998 24-415): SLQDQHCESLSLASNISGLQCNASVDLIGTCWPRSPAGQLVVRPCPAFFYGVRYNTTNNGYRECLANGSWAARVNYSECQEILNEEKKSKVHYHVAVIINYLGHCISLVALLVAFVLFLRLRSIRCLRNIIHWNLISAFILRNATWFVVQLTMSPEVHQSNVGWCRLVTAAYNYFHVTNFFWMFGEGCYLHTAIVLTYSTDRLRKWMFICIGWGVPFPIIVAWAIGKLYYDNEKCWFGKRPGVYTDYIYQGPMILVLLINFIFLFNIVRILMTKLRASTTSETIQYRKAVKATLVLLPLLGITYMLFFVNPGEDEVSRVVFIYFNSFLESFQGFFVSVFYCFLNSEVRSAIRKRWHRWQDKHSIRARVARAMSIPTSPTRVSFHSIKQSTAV
Assay: CRF1 receptor radioligand binding assay ([125I]-oCRF competition, IMR-32 cell membranes)
Conditions: IMR-32 cell membranes, [125I]-oCRF 100 pM; read-out: Ki (CRF-1R)
Outline: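 Buffer: Tris pH 7.2 with MgCl2, BSA, Triton X-100, aprotinin, leupeptin; reaction stopped with ice-cold wash and filtered. Nonspecific binding set with 10 μM oCRF.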

| SMILES | Ki [µM] |
| --- | --- |
| Cc1cc(C)c(N2CCCn3c2nc(C(F)(F)F)c3CN(CCc2ccccc2)CCC(F)(F)F)c(C)c1 [Example 81, Phenethyl-[2-trifluoromethyl-8-(2,4,6-trimethyl-phenyl)-5,6,7,8-tetrahydro-imidazo[1,2-a]pyrimidin-3-ylmethyl]-(3,3,3-trifluoro-propyl)-amine] | < 1 |
| Cc1cc(C)c(N2CCCn3c2nc(C(F)(F)F)c3CN(CCc2ccccc2)CC(F)(F)F)c(C)c1 [Example 82, Phenethyl-(2,2,2-trifluoro-ethyl)-[2-trifluoromethyl-8-(2,4,6-trimethyl-phenyl)-5,6,7,8-tetrahydro-imidazo[1,2-a]pyrimidin-3-ylmethyl]-amine] | < 0.1 |
| Cc1cc(C)c(N2CCCn3c2nc(C(F)(F)F)c3CN(Cc2ccccc2)CC(F)(F)F)c(C)c1 [Example 85, Benzyl-(2,2,2-trifluoro-ethyl)-[2-trifluoromethyl-8-(2,4,6-trimethyl-phenyl)-5,6,7,8-tetrahydro-imidazo[1,2-a]pyrimidin-3-ylmethyl]-amine] | < 10 |
| Cc1cc(C)c(N2CCCn3c2nc(C(F)(F)F)c3CN(CCC(F)(F)F)Cc2ccccc2)c(C)c1 [Example 86, Benzyl-[2-trifluoromethyl-8-(2,4,6-trimethyl-phenyl)-5,6,7,8-tetrahydro-imidazo[1,2-a]pyrimidin-3-ylmethyl]-(3,3,3-trifluoro-propyl)-amine] | < 1 |
| Cc1cc(C)c(N2CCCn3c2nc(C(F)(F)F)c3CN(CCC(F)(F)F)Cc2ccc(F)cc2)c(C)c1 [Example 91, (4-Fluoro-benzyl)-[2-trifluoromethyl-8-(2,4,6-trimethyl-phenyl)-5,6,7,8-tetrahydro-imidazo[1,2-a]pyrimidin-3-ylmethyl]-(3,3,3-trifluoro-propyl)-amine] | < 1 |
| Cc1cc(C)c(N2CCCn3c2nc(C(F)(F)F)c3CN(CCC(F)(F)F)Cc2ccc(Cl)cc2)c(C)c1 [Example 93, (4-Chloro-benzyl)-[2-trifluoromethyl-8-(2,4,6-trimethyl-phenyl)-5,6,7,8-tetrahydro-imidazo[1,2-a]pyrimidin-3-ylmethyl]-(3,3,3-trifluoro-propyl)-amine] | < 0.1 |
| Cc1cc(C)c(N2CCCn3c2nc(C(F)(F)F)c3CN2CCOCC2)c(Cl)c1 [Example 97, 8-(2-Chloro-4,6-dimethyl-phenyl)-3-morpholin-4-ylmethyl-2-trifluoromethyl-5,6,7,8-tetrahydro-imidazo[1,2-a]pyrimidine] | < 1 |
| Cc1cc(C)c(N2CCCn3c2nc(C(F)(F)F)c3CN2CCSCC2)c(Cl)c1 [Example 98, 8-(2-Chloro-4,6-dimethyl-phenyl)-3-thiomorpholin-4-ylmethyl-2-trifluoromethyl-5,6,7,8-tetrahydro-imidazo[1,2-a]pyrimidine] | < 1 |
| Cc1cc(C)c(N2CCCn3c2nc(C(F)(F)F)c3CN2CCCCC2)c(Cl)c1 [Example 99, 8-(2-Chloro-4,6-dimethyl-phenyl)-3-piperidin-1-ylmethyl-2-trifluoromethyl-5,6,7,8-tetrahydro-imidazo[1,2-a]pyrimidine] | < 1 |
| Cc1cc(C)c(N2CCCn3c2nc(C(F)(F)F)c3CN2CCCCC2C)c(Cl)c1 (stereo not shown) [Example 100, 8-(2-Chloro-4,6-dimethyl-phenyl)-3-(2-methyl-piperidin-1-ylmethyl)-2-trifluoromethyl-5,6,7,8-tetrahydro-imidazo[1,2-a]pyrimidine] | < 1 |
| Cc1cc(C)c(N2CCCn3c2nc(C(F)(F)F)c3CN2CCCC(C)C2)c(Cl)c1 (stereo not shown) [Example 101, 8-(2-Chloro-4,6-dimethyl-phenyl)-3-(3-methyl-piperidin-1-ylmethyl)-2-trifluoromethyl-5,6,7,8-tetrahydro-imidazo[1,2-a]pyrimidine] | < 1 |
| Cc1cc(C)c(N2CCCn3c2nc(C(F)(F)F)c3CN2CCC(C)CC2)c(Cl)c1 [Example 102, 8-(2-Chloro-4,6-dimethyl-phenyl)-3-(4-methyl-piperidin-1-ylmethyl)-2-trifluoromethyl-5,6,7,8-tetrahydro-imidazo[1,2-a]pyrimidine] | < 1 |

Continued, values first:

| Ki [µM] | SMILES |
| --- | --- |
| < 0.1 | CCCN(CCc1ccccc1)Cc1c(C(F)(F)F)nc2n1CCCN2c1c(C)cc(C)cc1C [Example 83, Phenethyl-propyl-[2-trifluoromethyl-8-(2,4,6-trimethyl-phenyl)-5,6,7,8-tetrahydro-imidazo[1,2-a]pyrimidin-3-ylmethyl]-amine] |
| < 1 | CCN(CCc1ccccc1)Cc1c(C(F)(F)F)nc2n1CCCN2c1c(C)cc(C)cc1C [Example 84, Ethyl-phenethyl-[2-trifluoromethyl-8-(2,4,6-trimethyl-phenyl)-5,6,7,8-tetrahydro-imidazo[1,2-a]pyrimidin-3-ylmethyl]-amine] |
| < 1 | CCCN(CCC1CC1)Cc1c(C(F)(F)F)nc2n1CCCN2c1c(C)cc(C)cc1C [Example 87, (2-Cyclopropyl-ethyl)-propyl-[2-trifluoromethyl-8-(2,4,6-trimethyl-phenyl)-5,6,7,8-tetrahydro-imidazo[1,2-a]pyrimidin-3-ylmethyl]-amine] |
| < 1 | CCN(CCC1CC1)Cc1c(C(F)(F)F)nc2n1CCCN2c1c(C)cc(C)cc1C [Example 88, (2-Cyclopropyl-ethyl)-ethyl-[2-trifluoromethyl-8-(2,4,6-trimethyl-phenyl)-5,6,7,8-tetrahydro-imidazo[1,2-a]pyrimidin-3-ylmethyl]-amine] |
| < 1 | Cc1cc(C)c(N2CCCn3c2nc(C(F)(F)F)c3CN(CCC2CC2)CCC(F)(F)F)c(C)c1 [Example 89, (2-Cyclopropyl-ethyl)-[2-trifluoromethyl-8-(2,4,6-trimethyl-phenyl)-5,6,7,8-tetrahydro-imidazo[1,2-a]pyrimidin-3-ylmethyl]-(3,3,3-trifluoro-propyl)-amine] |
| < 1 | Cc1cc(C)c(N2CCCn3c2nc(C(F)(F)F)c3CN(CCC2CC2)CC(F)(F)F)c(C)c1 [Example 90, (2-Cyclopropyl-ethyl)-(2,2,2-trifluoro-ethyl)-[2-trifluoromethyl-8-(2,4,6-trimethyl-phenyl)-5,6,7,8-tetrahydro-imidazo[1,2-a]pyrimidin-3-ylmethyl]-amine] |
| < 1 | CCCN(Cc1ccc(F)cc1)Cc1c(C(F)(F)F)nc2n1CCCN2c1c(C)cc(C)cc1C [Example 92, (4-Fluoro-benzyl)-propyl-[2-trifluoromethyl-8-(2,4,6-trimethyl-phenyl)-5,6,7,8-tetrahydro-imidazo[1,2-a]pyrimidin-3-ylmethyl]-amine] |
| < 1 | CCCN(Cc1ccc(Cl)cc1)Cc1c(C(F)(F)F)nc2n1CCCN2c1c(C)cc(C)cc1C [Example 94, (4-Chloro-benzyl)-propyl-[2-trifluoromethyl-8-(2,4,6-trimethyl-phenyl)-5,6,7,8-tetrahydro-imidazo[1,2-a]pyrimidin-3-ylmethyl]-amine] |
| < 0.1 | C=CCN(CCC)Cc1c(C(F)(F)F)nc2n1CCCN2c1c(C)cc(C)cc1C [Example 95, Allyl-propyl-[2-trifluoromethyl-8-(2,4,6-trimethyl-phenyl)-5,6,7,8-tetrahydro-imidazo[1,2-a]pyrimidin-3-ylmethyl]-amine] |
| < 0.1 | CCCN(Cc1c(C(F)(F)F)nc2n1CCCN2c1c(C)cc(C)cc1Cl)CC1CC1 [Example 96, [8-(2-Chloro-4,6-dimethyl-phenyl)-2-trifluoromethyl-5,6,7,8-tetrahydro-imidazo[1,2-a]pyrimidin-3-ylmethyl]-cyclopropylmethyl-propyl-amine] |
